Results as given in the NIST ThermoML archive (doi:10.1021/je5000605).
Numbers after ± are expanded uncertainties.

Conditions: 293.15 K; 101.33 kPa; Crystal; Pycnometric method

molar volume: 0.0004982 ± 1e-05 m3/mol
SMILES: C=CC1=C(C(=O)O)N2C(=O)[C@@H](NC(=O)/C(=N\OCC(=O)O)c3csc(N)n3)[C@H]2SC1.O.O.O [cefixime trihydrate]
